Laboratory results as given in US20230085307A1, “PYRIDAZINONE COMPOUND AND HERBICIDE” (NISSAN CHEMICAL CORPORATION, priority 2019, published 2023).

Experiments:
[1] = system: late watergrass; assay: Test Example 2: herbicidal activity, application during weed generation under submerged conditions (Table 17, symbol A); assay type: in vivo, late watergrass (Echinochloa oryzicola); settings: AAH 320 g/ha; application during weed generation, submerged conditions
Outline: (§1)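 Alluvial soil in Wagner pots was flooded to 4 cm depth and sown with the three weeds together; pots were kept in a greenhouse at 25° C. to 30° C. At the one to two leaf stage, an emulsion formulation diluted in water to a set rate went onto the water surface; scored three weeks later.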

[2] = system: Japanese bulrush; assay: Test Example 2: herbicidal activity, application during weed generation under submerged conditions (Table 17, symbol B); assay type: in vivo, Japanese bulrush (Schoenoplectus juncoides); settings: AAH 320 g/ha; application during weed generation, submerged conditions
Outline: as §1

[3] = system: barnyard grass; assay: Test Example 3: herbicidal effect by foliage application, Wagner pot (Table 18, symbol H); assay type: in vivo, barnyard grass (Echinochloa crus-galli); settings: amount of applied herbicide 320 g/ha
Outline: (§2)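 Plants were sown in alluvial soil held under 0.1–0.5 cm standing water and grown 14 days in a greenhouse at 25–30 °C. An emulsifiable formulation, water-diluted to the set dose, was then sprayed onto the foliage, and effects were scored three weeks later using previously defined criteria.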

[4] = system: rice flat sedge; assay: Test Example 3: herbicidal effect by foliage application, Wagner pot (Table 18, symbol E); assay type: in vivo, rice flat sedge (Cyperus iria); settings: amount of applied herbicide 320 g/ha
Outline: as §2

[5] = system: southern crabgrass; assay: Test Example 4: herbicidal effect by soil treatment (Table 19, symbol F); assay type: in vivo, southern crabgrass (Digitaria ciliaris); settings: amount of applied herbicide 320 g/ha
Outline: (§3)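 Step 1: sow seeds in sterilized diluvial soil, cover ~1.5 cm. Step 2: spray diluted emulsion onto soil surface at predetermined rate. Step 3: greenhouse, 25–30° C, three weeks. Step 4: grade effect on each plant by earlier criteria.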

[6] = system: green foxtail; assay: Test Example 4: herbicidal effect by soil treatment (Table 19, symbol G); assay type: in vivo, green foxtail (Setaria viridis); settings: amount of applied herbicide 320 g/ha
Outline: as §3

[7] = system: barnyard grass; assay: Test Example 4: herbicidal effect by soil treatment (Table 19, symbol H); assay type: in vivo, barnyard grass (Echinochloa crus-galli); settings: amount of applied herbicide 320 g/ha
Outline: as §3

[8] = system: wild oat; assay: Test Example 4: herbicidal effect by soil treatment (Table 19, symbol I); assay type: in vivo, wild oat (Avena fatua); settings: amount of applied herbicide 320 g/ha
Outline: as §3

[9] = system: Italian ryegrass; assay: Test Example 4: herbicidal effect by soil treatment (Table 19, symbol K); assay type: in vivo, Italian ryegrass (Lolium multiflorum); settings: amount of applied herbicide 320 g/ha
Outline: as §3

[10] = system: velvetleaf; assay: Test Example 4: herbicidal effect by soil treatment (Table 19, symbol M); assay type: in vivo, velvetleaf (Abutilon theophrasti); settings: amount of applied herbicide 320 g/ha
Outline: as §3

[11] = system: redroot pigweed; assay: Test Example 4: herbicidal effect by soil treatment (Table 19, symbol N); assay type: in vivo, redroot pigweed (Amaranthus retroflexus); settings: amount of applied herbicide 320 g/ha
Outline: as §3

[12] = system: lambsquarters; assay: Test Example 4: herbicidal effect by soil treatment (Table 19, symbol O); assay type: in vivo, lambsquarters (Chenopodium album); settings: amount of applied herbicide 320 g/ha
Outline: as §3

[13] = system: chickweed; assay: Test Example 4: herbicidal effect by soil treatment (Table 19, symbol P); assay type: in vivo, common chickweed (Stellaria media); settings: amount of applied herbicide 320 g/ha
Outline: as §3

[14] = system: southern crabgrass; assay: Test Example 5: herbicidal effect by foliage application, plastic box (Table 20, symbol F); assay type: in vivo, southern crabgrass (Digitaria ciliaris); settings: foliage application, AAH 320 g/ha, evaluated three weeks after application
Outline: (§4)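 Foliar spray test: emulsion formulation diluted in water to a set application rate, sprayed onto 14-day-old plants raised in diluvial soil at 25° C to 30° C under glass. Both herbicidal effect and crop effect rated visually three weeks later.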

[15] = system: barnyard grass; assay: Test Example 5: herbicidal effect by foliage application, plastic box (Table 20, symbol H); assay type: in vivo, barnyard grass (Echinochloa crus-galli); settings: foliage application, AAH 320 g/ha, evaluated three weeks after application
Outline: as §4

[16] = system: wild oat; assay: Test Example 5: herbicidal effect by foliage application, plastic box (Table 20, symbol I); assay type: in vivo, wild oat (Avena fatua); settings: foliage application, AAH 320 g/ha, evaluated three weeks after application
Outline: as §4

[17] = system: blackgrass; assay: Test Example 5: herbicidal effect by foliage application, plastic box (Table 20, symbol J); assay type: in vivo, blackgrass (Alopecurus myosuroides); settings: foliage application, AAH 320 g/ha, evaluated three weeks after application
Outline: as §4

[18] = system: Italian ryegrass; assay: Test Example 5: herbicidal effect by foliage application, plastic box (Table 20, symbol K); assay type: in vivo, Italian ryegrass (Lolium multiflorum); settings: foliage application, AAH 320 g/ha, evaluated three weeks after application
Outline: as §4

[19] = system: windgrass; assay: Test Example 5: herbicidal effect by foliage application, plastic box (Table 20, symbol L); assay type: in vivo, windgrass (Apera spica-venti); settings: foliage application, AAH 320 g/ha, evaluated three weeks after application
Outline: as §4

[20] = system: redroot pigweed; assay: Test Example 5: herbicidal effect by foliage application, plastic box (Table 20, symbol N); assay type: in vivo, redroot pigweed (Amaranthus retroflexus); settings: foliage application, AAH 320 g/ha, evaluated three weeks after application
Outline: as §4

[21] = system: lambsquarters; assay: Test Example 5: herbicidal effect by foliage application, plastic box (Table 20, symbol O); assay type: in vivo, lambsquarters (Chenopodium album); settings: foliage application, AAH 320 g/ha, evaluated three weeks after application
Outline: as §4

[22] = system: persian speedwell; assay: Test Example 5: herbicidal effect by foliage application, plastic box (Table 20, symbol R); assay type: in vivo, Persian speedwell (Veronica persica); settings: foliage application, AAH 320 g/ha, evaluated three weeks after application
Outline: as §4

Row | Structure (SMILES) | herbicidal effect rating, A: late watergrass [1] | herbicidal effect rating, B: Japanese bulrush [2] | herbicidal effect on H: barnyard grass [3] | herbicidal effect on E: rice flat sedge [4] | herbicidal effect on F: southern crabgrass [5] | herbicidal effect on G: green foxtail [6] | herbicidal effect on H: barnyard grass [7] | herbicidal effect on I: wild oat [8] | herbicidal effect on K: Italian ryegrass [9] | herbicidal effect on M: velvetleaf [10] | herbicidal effect on N: redroot pigweed [11] | herbicidal effect on O: lambsquarters [12] | herbicidal effect on P: chickweed [13] | F: southern crabgrass, herbicidal effect (criteria 0-5) [14] | H: barnyard grass, herbicidal effect (criteria 0-5) [15] | I: wild oat, herbicidal effect (criteria 0-5) [16] | J: blackgrass, herbicidal effect (criteria 0-5) [17] | K: Italian ryegrass, herbicidal effect (criteria 0-5) [18] | L: windgrass, herbicidal effect (criteria 0-5) [19] | N: redroot pigweed, herbicidal effect (criteria 0-5) [20] | other results
1 | Cc1nn(C)c(=O)c(-c2c(-c3ccc(OC(F)F)cc3)sc3ccc(F)cc23)c1OC(=O)C1CCCO1 (stereo not drawn) [2-289] | 3 (Herbicidal rate of 40% or more and less than 70%) | 3 (Herbicidal rate of 40% or more and less than 70%) | 5 (Herbicidal rate of 90% or more (almost completely withered)) | 5 (Herbicidal rate of 90% or more (almost completely withered)) | 5 (Herbicidal rate of 90% or more (almost completely withered)) | 5 (Herbicidal rate of 90% or more (almost completely withered)) | 5 (Herbicidal rate of 90% or more (almost completely withered)) | 2 (Herbicidal rate of 20% or more and less than 40%) | 5 (Herbicidal rate of 90% or more (almost completely withered)) | 5 (Herbicidal rate of 90% or more (almost completely withered)) | 5 (Herbicidal rate of 90% or more (almost completely withered)) | 5 (Herbicidal rate of 90% or more (almost completely withered)) | 5 (Herbicidal rate of 90% or more (almost completely withered)) | 3 (Herbicidal rate of 40% or more and less than 70%) | 5 (Herbicidal rate of 90% or more (almost completely withered)) | 4 (Herbicidal rate of 70% or more and less than 90%) | 4 (Herbicidal rate of 70% or more and less than 90%) | 5 (Herbicidal rate of 90% or more (almost completely withered)) | 5 (Herbicidal rate of 90% or more (almost completely withered)) | 5 (Herbicidal rate of 90% or more (almost completely withered)) | O: lambsquarters, herbicidal effect (criteria 0-5) [21]: 5 (Herbicidal rate of 90% or more (almost completely withered)); R: persian speedwell, herbicidal effect (criteria 0-5) [22]: 5 (Herbicidal rate of 90% or more (almost completely withered))
2 | CCOC(=O)Oc1c(C)nn(C)c(=O)c1-c1c(-c2ccc(OC(F)F)cc2)sc2ccc(F)cc12 [2-292] | 5 (Herbicidal rate of 90% or more (almost completely withered)) | 5 (Herbicidal rate of 90% or more (almost completely withered)) | 5 (Herbicidal rate of 90% or more (almost completely withered)) | 4 (Herbicidal rate of 70% or more and less than 90%) | 3 (Herbicidal rate of 40% or more and less than 70%) | 5 (Herbicidal rate of 90% or more (almost completely withered)) | 5 (Herbicidal rate of 90% or more (almost completely withered)) | 0 (Herbicidal rate of 5% or less (almost no effect)) | 5 (Herbicidal rate of 90% or more (almost completely withered)) | 3 (Herbicidal rate of 40% or more and less than 70%) | 5 (Herbicidal rate of 90% or more (almost completely withered)) | 5 (Herbicidal rate of 90% or more (almost completely withered)) | 4 (Herbicidal rate of 70% or more and less than 90%) | 5 (Herbicidal rate of 90% or more (almost completely withered)) | 5 (Herbicidal rate of 90% or more (almost completely withered)) | 3 (Herbicidal rate of 40% or more and less than 70%) | 4 (Herbicidal rate of 70% or more and less than 90%) | 5 (Herbicidal rate of 90% or more (almost completely withered)) | 2 (Herbicidal rate of 20% or more and less than 40%) | 5 (Herbicidal rate of 90% or more (almost completely withered)) | O: lambsquarters, herbicidal effect (criteria 0-5) [21]: 5 (Herbicidal rate of 90% or more (almost completely withered)); R: persian speedwell, herbicidal effect (criteria 0-5) [22]: 5 (Herbicidal rate of 90% or more (almost completely withered))
3 | Cc1nn(C)c(=O)c(-c2c(-c3ccc(OC(F)F)cc3)sc3ccc(F)cc23)c1OC(=O)OCCCl [2-293] | 4 (Herbicidal rate of 70% or more and less than 90%) | 3 (Herbicidal rate of 40% or more and less than 70%) | 5 (Herbicidal rate of 90% or more (almost completely withered)) | 5 (Herbicidal rate of 90% or more (almost completely withered)) | 4 (Herbicidal rate of 70% or more and less than 90%) | 5 (Herbicidal rate of 90% or more (almost completely withered)) | 5 (Herbicidal rate of 90% or more (almost completely withered)) | 0 (Herbicidal rate of 5% or less (almost no effect)) | 5 (Herbicidal rate of 90% or more (almost completely withered)) | 5 (Herbicidal rate of 90% or more (almost completely withered)) | 5 (Herbicidal rate of 90% or more (almost completely withered)) | 5 (Herbicidal rate of 90% or more (almost completely withered)) | 4 (Herbicidal rate of 70% or more and less than 90%) | 5 (Herbicidal rate of 90% or more (almost completely withered)) | 5 (Herbicidal rate of 90% or more (almost completely withered)) | 3 (Herbicidal rate of 40% or more and less than 70%) | 5 (Herbicidal rate of 90% or more (almost completely withered)) | 5 (Herbicidal rate of 90% or more (almost completely withered)) | 4 (Herbicidal rate of 70% or more and less than 90%) | 5 (Herbicidal rate of 90% or more (almost completely withered)) | O: lambsquarters, herbicidal effect (criteria 0-5) [21]: 5 (Herbicidal rate of 90% or more (almost completely withered)); R: persian speedwell, herbicidal effect (criteria 0-5) [22]: 5 (Herbicidal rate of 90% or more (almost completely withered))
